From US4522943A, “Chemical compounds” (Bristol-Myers Company, priority 1982, dated 1985)

Assays:
[1] = system: gastric acid secretion; test: Gastric Antisecretory Activity in the Heidenhain Pouch Dog; format: in vivo, female dogs; settings: for Potency Ratio [cimetidine = 1.0] (INTRAVENOUS) / Potency Ratio [cimetidine = 1.0] (ORAL): relative to cimetidine = 1.0
Procedure: The dosage of the compounds of this invention will depend not only on such factors as the weight of the patient, but also on the degree of gastric acid inhibition desired and the potency of the particular compound being utilized. The decision as to the particular dosage to be employed is within the discretion of the physician. […] The usual human adult oral dose of cimetidine is 300 mg, given four times a day. The usual human adult starting oral dosages of the compounds of this invention are readily determined from their oral ED50 in this same test. […] Similar calculations may be made for iv dosages. These starting dosages (and the number of times administered per day) may, of course, be varied by titration of the dosage to the particular circumstances of the specific patient. […] The active ingredient will preferably be administered in equal doses from one to four times a day.
(§1) Med Res., 3, 86 (1975). […] Two of the standard animal models for determining gastric antisecretory activity of histamaine H2 -antagonists are the Gastric Fistula Rat and the Heidenhain Pouch Dog.
Determination of Gastric Antisecretory Activity in the Heidenhain Pouch Dog
Prior to surgery, hematology and blood chemistry profiles are obtained and an assessment made as to the general health of selected female dogs. Dogs are vaccinated with Tissue Vax 5 (DHLP-Pitman-Moore) and housed in general animal quarters for four weeks' observation so incipient diseases may become apparent. Dogs are fasted with water ad libitium 24 hours prior to surgery.
Anesthesia is induced with Sodium Pentothal (Abbott) 25-30 mg/kg iv. Subsequent anesthesia is maintained with methoxyflurane (Pitman-Moore). A mid-line linea alba incision from xiphoid to umbilicus provides good exposure and ease of closure. The stomach is pulled up into the operative field, the greater curvature stretched out at multiple points and clamps placed along the selected line of incision. The pouch is made from the corpus of the stomach so that true parietal cell juice is obtained. About 30% of the corpus volume is resected. The cannula is made of light-weight,biologically-inert material such as nylon or Delrin with dimensions and attachments after DeVito and Harkins [J. Appl. Physiol., 14, 138 (1959)]. Post operatively, dogs are medicated with antibiotics and an analgesic. They are allowed 2-3 months for recovery. Experiments are carried out in the following way: Dogs are fasted overnight (~18 hours) with water ad libitum prior to each experiment. The dogs are placed in a sling and a saphenous vein cannulated for drug administration. Histamine as the base (100 μg/kg/hr and chlorpheniramine maleate (0.25 mg/kg/hr) are infused continuously (in a volume of 6 ml/hr) with a Harvard infusion pump.
Ninety minutes' infusion are allowed for the dogs to reach a steady state of acid output. At this time the drug or normal saline (control) is administered concomitantly with the secretagogue in a volume of 0.5 ml/kg over a 30 second period. When oral studies are to be carried out, the drug is administered via gastric gavage in a volume of 5 ml/kg. Infusion of the secretagogue is continued and 15 minute samples of the gastric juice are taken for 4.5 hours. Each sample is measured to the nearest 0.5 ml and titratable acidity is determined by titrating a 1 ml sample to pH 7.0 with 0.2N NaOH, using an Autoburet and an electrometric pH meter (Radiometer). Titratable acid output is calculated in microequivalents by multiplying the volume in milliliters by the acid concentration in milliequivalents per liter.
Results are expressed as percent inhibition relative to control readings. Dose response curves are constructed and ED50 values are calculated by regression analyses. From 3 to 5 dogs are used at each dose level and a minimum of three dosage levels are utilized for determination of a dose response curve.

[2] = system: gastric secretion; settings: in animals, including man; cited from earlier work
[3] = in vivo; cited from earlier work
[4] = system: histamine H2-receptor; settings: relative to another H2-antagonist; cited from earlier work
[5] = peptic ulcer disease, clinical evaluation; cited from earlier work
[6] = system: gastric acid secretion; test: Gastric Antisecretory Activity in the Gastric Fistula Rat; format: in vivo, Male Long Evans rats; settings: sc, relative to cimetidine = 1.0, 95% confidence limits on following line
Procedure: as §1
Determination of Gastric Antisecretory Activity in the Gastric Fistula Rat
Male Long Evans rats weighing about 240-260 grams at the time of cannula implantation are used. The design and implantation of the stainless steel cannula into the anterior wall of the fore-stomach are carried out essentially as described by Pare et al. [Laboratory Animal Science, 27, 244 (1977)]. The fistula components are designed and the operative procedure is carried out exactly as described in the above reference. Post operatively the animals are individually housed in solid bottom cages with sawdust and are allowed food and water ad libitum throughout the entire recovery period. Animals are not used for test purposes for at least 15 days after the operative procedure.
The animals are fasted but allowed water ad libitum for 20 hours before the testing procedure is to begin. […]
Titratable acid output is calculated in microequivalents by multiplying the volume in milliliters by the acid concentration in milliequivalents per liter.
Results are expressed as percent inhibition relative to control readings. Dose response curves are constructed and ED50 values are calculated by regression analyses. […]

CN(C)Cc1cccc(OCCCNc2c(N)c(=O)c2=O)c1 [Example 9, 1-Amino-2-[3-(3-dimethylaminomethylphenoxy)propylamino]cyclobutene-3,4-dion]
Potency Ratio [cimetidine = 1.0] (INTRAVENOUS) [1]: ~ 40 | Potency Ratio [cimetidine = 1.0] (ORAL) ([1]; oral): ~ 20

CNC(=S)NCCCCc1cnc[nH]1 [Burimamide]
inhibits gastric secretion [2]: inhibits gastric secretion | oral absorption [3]: poor

CN(C)Cc1ccc(CSCCNc2c(N)c(=O)c2=O)o1 [Example 2, 1-Amino-2-{2-[(5-dimethylaminomethyl-2-furyl)metylthio]ethylamino}cyclobutene-3,4-dione]
Potency Ratio [cimetidine = 1.0] (INTRAVENOUS) [1]: ~ 20

Nc1c(NCCCOc2cccc(CN3CCCCCC3)c2)c(=O)c1=O [Example 10i, 1-amino-2-[3-(3-hexamethyleneiminomethylphenoxy)propylamino]cyclobutene-3,4-dione]
Potency Ratio [cimetidine = 1.0] (INTRAVENOUS) [1]: > 40

CNC(=NC#N)NCCSCc1nc[nH]c1C [Cimetidine]
H2-antagonist potency / effectiveness [4]: as effective an H2 -antagonist as metiamide | clinical effectiveness [5]: effective therapeutic agent in the treatment of peptic ulcer disease | ED50 (ORAL) ([1]; oral, histamine-stimulated, 95% confidence limits on following line): 3.29 µmol/kg

CN(C)Cc1ccc(CSCCNc2c(N)c(=O)c2=O)s1 [Example 3, 1-Amino-2-{2-[(5-dimethylaminomethyl-2-thienyl)methylthio]ethylamino}cyclobutene-3,4-dione]
Potency Ratio [cimetidine = 1.0] [6]: ~ 1

Nc1c(NCCCOc2cccc(CN3CCCCC3)c2)c(=O)c1=O [Example 1, 1-Amino-2-[3-(3-piperidinomethylphenoxy)propylamino]cyclobutene-3,4-dione]
Potency Ratio [cimetidine = 1.0] (INTRAVENOUS) [1]: 87 | Potency Ratio [cimetidine = 1.0] (ORAL) ([1]; oral): 25

CNC(=S)NCCSCc1nc[nH]c1C [Metiamide]
H2-antagonist potency / effectiveness [4]: more potent than burimamide
